Assay results published in patent US20090068290A1, “BIFEPRUNOX DOSES FOR TREATING SCHIZOPHRENIA” (priority 2006, published 2009).

Tests used:
[1] = tested on: adult subjects with schizophrenia; test: Adverse events (TEAE, SAE, special interest, discontinuation, EPS-related TEAE), Clinical Study Three; settings: for safety and tolerability: bifeprunox 20 mg and 30 mg, 6 weeks
Protocol: There were four treatment arms in this study, approximately 144 subjects per arm. […] After completing the Single-Blind Placebo Lead-in Period of at least three days, bifeprunox-treated subjects were titrated from 0.25 mg up to 20 mg/day or 30 mg/day according to a standardized titration scheme over a seven- or eight-day period, respectively. When the assigned dose was reached, subjects were maintained at that dose for the remainder of the six week treatment period. […] Subjects were hospitalized (if not already inpatients) after eligibility for study entry was verified, starting from the Screening Visit until at least 10 days after Baseline. Subjects could be hospitalized longer than 10 days if considered medically necessary by the Investigator. Rating scale assessments for efficacy and abnormal movement disorders were done weekly except for Week 5. Safety assessments were performed at Screening, during treatment and at the end of the study. Subject satisfaction with study medication was assessed at Week 6. Samples of whole blood were obtained at Weeks 2, 4, and 6 for determination of bifeprunox in plasma.
EPS were assessed using treatment-emergent adverse events such as akathisia, dyskinesia, parkinsoniam, etc. and/or formal rating scales such as SAS, BAS, and/or AIMS.

[2] = tested on: adult subjects with schizophrenia; test: CGI Severity of Illness score, Clinical Study One; format: in vivo, human; design: Change from Baseline in CGI Severity of Illness Score, Median: scale not given here; settings: for Change from Baseline in CGI Severity of Illness Score, Mean (S.D.) / Change from Baseline in CGI Severity of Illness Score, Median / Change from Baseline in CGI Severity of Illness Score, Trt Effect (bifeprunox—placebo): ITT population
Protocol: There were five treatment groups in this study. […] Study medication was administered once daily. After Baseline measurements were performed, the titration phase was begun. Bifeprunox treated subjects were titrated up to 5 mg, 10 mg or 20 mg according to a standardized titration schedule (Day 1: 0.125 mg, Day 2: 0.25 mg, Day 3: 0.5 mg, Day 4: 1.0 mg, Day 5: 2.0 mg, Day 6: 5.0 mg, Day 7: 10.0 mg, Day 8: 20 mg). When the assigned dose was reached, subjects were maintained at that dose for the remainder of the six-week treatment period.
The change in the Positive and Negative Symptom Scale (PANSS) total score, from baseline to endpoint, was the primary outcome measure. Secondary efficacy measures included: PANSS positive, PANSS negative, PANSS general psychopathology (GPP) score, PANSS-derived Brief Psychiatric Rating Scale (BPRS) score, Clinical Global Impressions-Severity of Illness (CGI-S), CGI-Improvement (CGI-I) scores, and responder rates. Safety and tolerability evaluations included extrapyramidal symptoms (EPS), weight gain, lipid profile, and serum prolactin.

[3] = Bifeprunox 10 mg, Endpoint LOCF
[4] = Bifeprunox 20 mg, Endpoint LOCF

## O=c1[nH]c2cccc(N3CCN(Cc4cccc(-c5ccccc5)c4)CC3)c2o1 [Bifeprunox, 7-[4-([1,1′-biphenyl]-3-ylmethyl)-1-piperazinyl]-2(3H)-benzoxazolone]
[1]; BX 40 mg
  SYNCOPE VASOVAGAL, %: 1%
  TREMOR, %: 3%
[1]; Bifeprunox 30 mg
  incidence of dizziness (TEAE of special interest): 10%
  orthostatic hypotension (special interest TEAE): three subjects
  subjects with at least one AE that led to study termination: 7%
  subjects with at least one SAE: 8%
  subjects with at least one TEAE: 77%
  subjects with at least one special interest TEAE: 13%
  syncope vasovagal (special interest TEAE): two subjects
[1]; bifeprunox 20 mg
  incidence of dizziness (TEAE of special interest): 8%
  subjects with at least one AE that led to study termination: 8%
  subjects with at least one SAE: 10%
  subjects with at least one TEAE: 82%
  subjects with at least one special interest TEAE: 11%
[1]
  safety and tolerability: well tolerated at both dose levels
[1]; listed as bifeprunox
  safety and tolerability: safe and well tolerated
[1]; bifeprunox groups (20, 30 mg), each
  subjects who discontinued study medication due to an AE: 8%
[2]; Bifeprunox 5 mg, Endpoint LOCF
  CGI severity of illness score, treatment effect (bifeprunox—placebo): −0.31
  Change from Baseline in CGI Severity of Illness Score, Mean (S.D.): −0.58 (1.10)
  Change from Baseline in CGI Severity of Illness Score, Median: 0.0
  Change from Baseline in CGI Severity of Illness Score, Trt Effect (bifeprunox—placebo): −0.31
[2]; Bifeprunox 5 mg, Week 1, LOCF
  Change from Baseline in CGI Severity of Illness Score, Mean (S.D.): −0.18 (0.68)
  Change from Baseline in CGI Severity of Illness Score, Median: 0.0
[2]; Bifeprunox 5 mg, Week 2, LOCF
  Change from Baseline in CGI Severity of Illness Score, Mean (S.D.): −0.37 (0.83)
  Change from Baseline in CGI Severity of Illness Score, Median: 0.0
[2]; Bifeprunox 5 mg, Week 3, LOCF
  Change from Baseline in CGI Severity of Illness Score, Mean (S.D.): −0.47 (0.90)
  Change from Baseline in CGI Severity of Illness Score, Median: 0.0
[2]; Bifeprunox 5 mg, Week 4, LOCF
  Change from Baseline in CGI Severity of Illness Score, Mean (S.D.): −0.52 (1.01)
  Change from Baseline in CGI Severity of Illness Score, Median: 0.0
[2]; [3]
  CGI severity of illness score, treatment effect (bifeprunox—placebo): 0.12
  Change from Baseline in CGI Severity of Illness Score, Mean (S.D.): −0.18 (1.04)
  Change from Baseline in CGI Severity of Illness Score, Median: 0.0
  Change from Baseline in CGI Severity of Illness Score, Trt Effect (bifeprunox—placebo): 0.12
[2]; Bifeprunox 10 mg, Week 1, LOCF
  Change from Baseline in CGI Severity of Illness Score, Mean (S.D.): 0.13 (0.75)
  Change from Baseline in CGI Severity of Illness Score, Median: 0.0
[2]; Bifeprunox 10 mg, Week 2, LOCF
  Change from Baseline in CGI Severity of Illness Score, Mean (S.D.): −2.3 (0.92)
  Change from Baseline in CGI Severity of Illness Score, Median: 0.0
[2]; Bifeprunox 10 mg, Week 3, LOCF
  Change from Baseline in CGI Severity of Illness Score, Mean (S.D.): −0.22 (1.01)
  Change from Baseline in CGI Severity of Illness Score, Median: 0.0
[2]; Bifeprunox 10 mg, Week 4, LOCF
  Change from Baseline in CGI Severity of Illness Score, Mean (S.D.): −0.16 (0.99)
  Change from Baseline in CGI Severity of Illness Score, Median: 0.0
[2]; [4]
  Change from Baseline in CGI Severity of Illness Score, Mean (S.D.): −0.52 (0.96)
  Change from Baseline in CGI Severity of Illness Score, Median: 0.0
  Change from Baseline in CGI Severity of Illness Score, Trt Effect (bifeprunox—placebo): −0.19
[2]; Bifeprunox 20 mg, Week 1, LOCF
  Change from Baseline in CGI Severity of Illness Score, Mean (S.D.): −0.31 (0.74)
  Change from Baseline in CGI Severity of Illness Score, Median: 0.0
[2]; Bifeprunox 20 mg, Week 2, LOCF
  Change from Baseline in CGI Severity of Illness Score, Mean (S.D.): −0.50 (0.85)
  Change from Baseline in CGI Severity of Illness Score, Median: 0.0
[2]; Bifeprunox 20 mg, Week 3, LOCF
  Change from Baseline in CGI Severity of Illness Score, Mean (S.D.): −0.57 (0.90)
  Change from Baseline in CGI Severity of Illness Score, Median: 0.0
[2]; Bifeprunox 20 mg, Week 4, LOCF
  Change from Baseline in CGI Severity of Illness Score, Mean (S.D.): −0.57 (0.89)
  Change from Baseline in CGI Severity of Illness Score, Median: 0.0
[2]; bifeprunox 20 mg, Endpoint LOCF
  CGI severity of illness score, treatment effect (bifeprunox—placebo): −0.19
